pIC50: −log10 of the molar value. Structures can show the parent of a compound that is named as a salt. Marks after values point to notes of the source that are not given here.
What was measured:
[1] = biological target: Human Norepinephrine Transporter (NET (h)) (Homo sapiens (Human), UniProt P23975); assay: Radioligand binding assay, human norepinephrine transporter ([3H]nisoxetine); conditions: for inhibition at 10 µM: 2 h, single concentration 1.0 E-5 M, duplicate, mean values; for pIC50: dose-response curves
Method: (The measurement was performed as described in Pacholczyk, T., Blakely, R. D. and Amara, S. G. (1991), Expression cloning of a cocaine- and antidepressant-sensitive human noradrenaline transporter, Nature, 350: 350)
(§1) Cell membrane homogenates (20 μg protein) are incubated for 120 min at 4° C. with 1 nM [3H]nisoxetine in the absence or presence of the test compound in a buffer containing 50 mM Tris-HCl (pH 7.4), 120 mM NaCl and 5 mM KCl. Nonspecific binding is determined in the presence of 1 μM desipramine. Following incubation, the samples are filtered rapidly under vacuum through glass fiber filters (GF/B, Packard) presoaked with 0.3% PEI and rinsed several times with ice-cold 50 mM Tris-HCl using a 96-sample cell harvester (Unifilter, Packard). The filters are dried then counted for radioactivity in a scintillation counter (Topcount, Packard) using a scintillation cocktail (Microscint 0, Packard).
(§2) The results are expressed as a percent inhibition of the control radioligand specific binding.
(§3) […] Reported values are mean values.

[2] = biological target: Human Dopamine Transporter (DAT (h)) (Homo sapiens (Human), UniProt Q01959); assay: Radioligand binding assay, human dopamine transporter ([3H]BTCP); conditions: for inhibition at 10 µM: 2 h, single concentration 1.0 E-5 M, duplicate, mean values; for pIC50: dose-response curves
Method: (The measurement was performed as described in Pristuba, Z. B., Wilson, J. M., Hoffman, B. J., Kish, S. J. and Nisnik, H. B. (1994), Pharmacological heterogeneity of the cloned and native human dopamine transporter: disassociation of [3H]WIN 35,428 and [3H]GBR 12,935 binding, Mol. Pharmacol., 45: 125)
Cell membrane homogenates (20 μg protein) are incubated for 120 min at 4° C. with 4 nM
as §1, with “[3H]BTCP” for “Cell membrane homogenates (20 μg protein) are incubated for 120 min at 4° C. with 1 nM [3H]nisoxetine”, “7.4) and 100” for “7.4), 120”, “NaCl.” for “NaCl and 5 mM KCl.”, “10” for “1”, “BTCP.” for “desipramine.”
as §2, §3

[3] = biological target: Human 5-HT Transporter (SERT (h)) (Homo sapiens (Human), UniProt P31645); assay: Radioligand binding assay, human 5-HT transporter ([3H]imipramine); conditions: for inhibition at 10 µM: 1 h, single concentration 1.0 E-5 M, duplicate, mean values; for pIC50: dose-response curves
Method: (The measurement was performed as described in Tatsumi, M., Jansen, K., Blakely, R. D. and Richelson, E. (1999), Pharmacological profile of neuroleptics at human monoamine transporters, Eur. J. Pharmacol.
Cell membrane homogenates (12 μg protein) are incubated for 60 min at 22° C. with 2 nM [3H]imipramine in the absence or presence of the test compound in a buffer containing 50 mM Tris-HCl (pH 7.4), 120 mM NaCl, 5 mM KCl and 0.1% BSA.
Nonspecific binding is determined in the presence of 10 μM imipramine.
Following incubation, the samples are filtered rapidly under vacuum through glass fiber filters (GF/B, Packard) presoaked with 0.3% PEI and rinsed several times with an ice-cold buffer containing 50 mM Tris-HCl and 150 mM NaCl using a 96-sample cell harvester (Unifilter, Packard). The filters are dried then counted for radioactivity in a scintillation counter (Topcount, Packard) using a scintillation cocktail (Microscint 0, Packard).
The results are expressed as a percent inhibition of the control radioligand specific binding
as §3

[4] = tested on: non-pre-treated Sprague-Dawley rats; assay: Locomotor activity in drug-naïve rats (behavioural activity, distance traveled 0-60 min); format: in vivo; conditions: for locomotor activity: recorded for 60 minutes, control saline, n=5
Method: The effect of compounds in the present disclosure on locomotor activity in drug-naïve rats was also investigated. The animals were placed in the motility meters immediately after drug administration and locomotor activity was recorded for 60 minutes (counts/60 min±SEM). The results are presented as percent of control.
Behavioural activity was measured using eight Digiscan activity monitors (RXYZM (16) TAO, Omnitech Electronics, Columbus, Ohio, USA), connected to an Omnitech Digiscan analyzer and an Apple Macintosh computer equipped with a digital interface board (NB D10-24, National Instruments, USA). Each activity monitor consisted of a quadratic metal frame (W×L=40 cm×40 cm) equipped with photo beam sensors. During measurements of behavioural activity, a rat was put in a transparent acrylic cage (W×L×H, 40×40×30 cm) which in turn was placed in the activity monitor. Each activity monitor was equipped with three rows of infrared photo beam sensors, each row consisting of 16 sensors. Two rows were placed along the front and the side of the floor of the cage, at a 90° angle, and the third row was placed 10 cm above the floor to measure vertical activity. Photo beam sensors were spaced 2.5 cm apart. Each activity monitor was fitted in an identical sound and light attenuating box containing a weak house light and a fan.
The computer software was written using object oriented programming (LabVIEW™, National instruments, Austin, Tex., USA).
Behavioural data from each activity monitor, representing the position (horizontal center of gravity and vertical activity) of the animal at each time, were recorded at a sampling frequency of 25 Hz and collected using a custom written LABView™ application. The data from each recording session were stored and analyzed with respect to distance traveled. Each behavioural recording session lasted 60 min, starting approximately 5 min after the injection of test compound.
Compounds disclosed herein have been tested for effects on spontaneous locomotor activity in non-pre-treated Sprague-Dawley rats (based on accumulated distance traveled 0-60 min post dosing), and with doses up to 100 μmol/kg (s.c.).
The animals were placed in the motility meters immediately after drug administration and locomotor activity was recorded for 60 minutes (counts/60 min). Results are presented as percent of control means. Statistical significance was assessed using Student's t-test (2 tailed) vs controls. * denotes p<0.05, ** p<0.01, *** p<0.001, n=5.

[5] = at the highest tested dose (100 μmol/kg s.c.)
[6] = ratio of IC50 values of Table 6

Chain of Human Norepinephrine Transporter (NET (h)) (P23975 whole entry): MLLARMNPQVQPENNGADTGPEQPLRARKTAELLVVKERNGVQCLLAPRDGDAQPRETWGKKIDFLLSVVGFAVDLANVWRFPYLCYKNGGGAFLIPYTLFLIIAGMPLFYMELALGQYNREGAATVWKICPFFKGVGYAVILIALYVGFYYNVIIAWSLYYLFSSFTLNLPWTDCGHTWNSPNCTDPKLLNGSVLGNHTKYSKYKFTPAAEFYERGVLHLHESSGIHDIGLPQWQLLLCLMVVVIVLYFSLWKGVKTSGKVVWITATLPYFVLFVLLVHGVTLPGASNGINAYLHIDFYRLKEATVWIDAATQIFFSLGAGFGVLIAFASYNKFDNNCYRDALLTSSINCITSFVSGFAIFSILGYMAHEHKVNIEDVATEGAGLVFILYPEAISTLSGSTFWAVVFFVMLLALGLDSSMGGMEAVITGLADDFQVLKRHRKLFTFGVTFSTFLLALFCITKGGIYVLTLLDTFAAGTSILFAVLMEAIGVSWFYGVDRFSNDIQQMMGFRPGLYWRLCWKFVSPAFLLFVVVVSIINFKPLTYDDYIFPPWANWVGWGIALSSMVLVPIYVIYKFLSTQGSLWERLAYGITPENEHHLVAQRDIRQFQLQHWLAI
Chain of Human Dopamine Transporter (DAT (h)) (Q01959 whole entry): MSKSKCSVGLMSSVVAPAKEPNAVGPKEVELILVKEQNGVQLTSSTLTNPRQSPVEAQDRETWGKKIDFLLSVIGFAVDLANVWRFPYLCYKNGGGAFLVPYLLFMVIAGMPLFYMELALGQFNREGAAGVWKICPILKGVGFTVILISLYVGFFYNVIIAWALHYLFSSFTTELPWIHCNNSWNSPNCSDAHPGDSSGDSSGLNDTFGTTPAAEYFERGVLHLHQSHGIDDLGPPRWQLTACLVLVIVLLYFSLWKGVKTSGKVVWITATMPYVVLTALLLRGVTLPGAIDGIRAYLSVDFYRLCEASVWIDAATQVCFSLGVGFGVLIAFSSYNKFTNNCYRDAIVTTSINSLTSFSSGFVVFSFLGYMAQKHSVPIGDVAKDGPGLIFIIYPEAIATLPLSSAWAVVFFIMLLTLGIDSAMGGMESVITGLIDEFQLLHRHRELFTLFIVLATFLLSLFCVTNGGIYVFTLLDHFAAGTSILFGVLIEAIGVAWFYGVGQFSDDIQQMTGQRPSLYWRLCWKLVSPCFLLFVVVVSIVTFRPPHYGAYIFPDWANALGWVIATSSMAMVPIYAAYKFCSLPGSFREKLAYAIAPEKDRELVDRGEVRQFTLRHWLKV
Chain of Human 5-HT Transporter (SERT (h)) (P31645 whole entry): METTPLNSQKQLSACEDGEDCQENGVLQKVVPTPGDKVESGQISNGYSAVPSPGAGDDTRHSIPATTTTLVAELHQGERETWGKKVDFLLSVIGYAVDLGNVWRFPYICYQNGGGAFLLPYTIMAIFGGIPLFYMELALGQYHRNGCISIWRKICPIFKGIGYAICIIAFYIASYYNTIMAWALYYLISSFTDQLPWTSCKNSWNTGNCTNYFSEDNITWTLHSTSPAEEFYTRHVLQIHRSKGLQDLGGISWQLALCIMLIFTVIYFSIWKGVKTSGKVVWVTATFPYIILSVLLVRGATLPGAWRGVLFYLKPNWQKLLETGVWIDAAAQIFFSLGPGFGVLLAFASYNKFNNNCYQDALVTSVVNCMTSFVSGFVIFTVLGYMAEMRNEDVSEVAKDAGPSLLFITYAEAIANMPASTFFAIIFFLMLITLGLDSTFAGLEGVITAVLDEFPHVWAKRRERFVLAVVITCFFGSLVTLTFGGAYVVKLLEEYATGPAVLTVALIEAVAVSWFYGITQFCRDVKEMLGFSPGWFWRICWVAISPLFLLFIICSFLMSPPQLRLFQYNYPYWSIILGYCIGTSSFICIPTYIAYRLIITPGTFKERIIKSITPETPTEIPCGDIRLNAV

Row | SMILES | inhibition at 10 µM [1] [%] | pIC50 [1] | inhibition at 10 µM [2] [%] | pIC50 [2] | inhibition at 10 µM [3] [%] | pIC50 [3] | locomotor activity ([4]; 11 μmol/kg s.c.) | locomotor activity ([4]; 33 μmol/kg s.c.) | locomotor activity ([4]; 100 μmol/kg s.c.) | effect on locomotor activity (in words) ([4]; at all tested doses (11, 33, 100 μmol/kg s.c.)) | effect on locomotor activity (in words) ([4]; at the two highest doses (33, 100 μmol/kg s.c.)) | effect on locomotor activity (in words) [4, 5] | fold more potent than Example 1A at NET [1, 6] [fold] | fold more potent than Example 1A at DAT [2, 6] [fold] | fold more potent than Example 1A at SERT [3, 6] [fold]
1 | Fc1cccc(OC2CNC2)c1F [Example 1A, 3-(2,3-difluorophenoxy)azetidine hydrochloric acid salt] | 37 | 4.10 | 49 | 4.68 | 59 | 4.47 | 135 ± 17 % of control means | 163 ± 17* % of control means | 121 ± 23 % of control means |  |  |  |  |  | 
2 | Fc1cc(F)c(F)c(OC2CNC2)c1 [Example 2, 3-(2,3,5-trifluorophenoxy)azetidine hydrochloric acid salt] | 25 |  | 12 |  | 12 |  | 66 ± 8** % of control means | 57 ± 5*** % of control means | 21 ± 5*** % of control means | significant reduction |  |  |  |  | 
3 | Fc1cc(F)c(F)c(OC2CNC2)c1F [Example 3, 3-(2,3,5,6-tetrafluorophenoxy)-azetidine hydrochloric acid salt] | 25 |  | 10 |  | 11 |  | 114 ± 18 % of control means | 71 ± 26 % of control means | 44 ± 8* % of control means |  | significant reduction |  |  |  | 
4 | Fc1ccc(F)c(OC2CNC2)c1F [Example 20, 3-(2,3,6-trifluorophenoxy)azetidine hydrochloric acid salt] | 10 |  | 25 |  | 6 |  |  |  |  |  |  |  |  |  | 
5 | CCN1CC(Oc2c(F)c(F)cc(F)c2F)C1 [Example 39, 1-ethyl-3-(2,3,5,6-tetrafluorophenoxy)azetidine hydrochloric acid salt] | 11 |  | 17 |  | 1.5 |  | 132 ± 14 % of control means | 103 ± 18 % of control means | 78 ± 19 % of control means |  |  | significant reduction |  |  | 
6 | Fc1cc(F)cc(OC2CNC2)c1.O=C(O)C(O)C(O)C(=O)O [Example 52B, 3-(3,5-difluorophenoxy)azetidine (+)-tartaric acid salt] |  |  |  |  |  |  | 93 ± 15 % of control means | 30 ± 5* % of control means | 46 ± 8 % of control means |  |  |  |  |  | 
7 | Fc1cc(F)cc(OC2CNC2)c1 [Example 52C, 3-(3,5-difluorophenoxy)azetidine hydrochloric acid salt] | 25 |  | 25 |  | 29 |  | 128 ± 25 % of control means | 74 ± 24 % of control means | 73 ± 15 % of control means |  |  |  |  |  | 
8 | Clc1ccc(OC2CNC2)cc1Cl [Reference Compound, 3-(3,4-dichlorophenoxy)azetidine hydrochloric acid salt, reference compound] | 84 | 5.66 | 79 | 5.46 | 92 | 5.89 | 132 ± 10 % of control means | 108 ± 23 % of control means | 323 ± 50** % of control means |  |  | significant increase | 36 | 6 | 26

— patent US10875829B1, “Azetidine derivatives useful as modulators of cortical catecholaminergic neurotransmission” (Integrative Research Laboratories Sweden AB, priority 2016, dated 2020)
